According to patent US10472381B2, “Sialic acid derivatives” (Reinhard Brossmer, priority 2014, dated 2019):

target: T1, CD22 (Homo sapiens, UniProt P20273); assay: ELISA-based inhibition assay: inhibition of binding of soluble CD22 to immobilized IgM; conditions: Table I; relative to reference BPCNeu5Ac (rIP = 1)
T1 construct: The soluble CD22 protein was expressed in the CHO-Lec1 cell line; made in house; host or cells: CHO-Lec1
T1 sequence (P20273 20-687 limits assumed): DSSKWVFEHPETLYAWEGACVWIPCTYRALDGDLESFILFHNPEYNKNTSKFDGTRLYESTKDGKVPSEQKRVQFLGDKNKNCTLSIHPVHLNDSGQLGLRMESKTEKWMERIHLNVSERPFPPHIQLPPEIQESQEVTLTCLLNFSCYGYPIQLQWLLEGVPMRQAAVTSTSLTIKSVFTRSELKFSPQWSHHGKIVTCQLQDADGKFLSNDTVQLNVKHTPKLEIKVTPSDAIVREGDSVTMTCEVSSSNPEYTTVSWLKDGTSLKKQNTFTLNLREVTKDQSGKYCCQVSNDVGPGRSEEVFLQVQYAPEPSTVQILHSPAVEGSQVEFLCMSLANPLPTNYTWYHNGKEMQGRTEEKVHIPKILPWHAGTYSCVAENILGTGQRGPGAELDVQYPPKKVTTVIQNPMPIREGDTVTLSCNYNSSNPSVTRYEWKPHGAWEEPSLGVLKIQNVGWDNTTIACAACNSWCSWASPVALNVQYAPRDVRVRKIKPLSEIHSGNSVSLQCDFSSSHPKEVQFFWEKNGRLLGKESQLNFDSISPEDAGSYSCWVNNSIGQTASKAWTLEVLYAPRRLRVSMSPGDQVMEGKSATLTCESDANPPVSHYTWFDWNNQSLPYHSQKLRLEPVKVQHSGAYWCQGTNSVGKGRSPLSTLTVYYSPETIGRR
Procedure: The biological activity of the substances was determined in an ELISA-based inhibition assay as described in “Eur. J. Immunol. 2012, 42, 2792-2802”. The sialic acid derivatives of the formula (I) inhibit the binding of soluble CD22 to immobilized IgM in proportion to their affinity for CD22. The soluble CD22 protein was expressed in the CHO-Lec1 cell line and isolated as described by “Eur. J. Immunol. 2012, 42, 2792-2802”. […] The increase in affinity is reported as rIP (relative inhibitory affinity).

Structure (SMILES)	rIP (relative inhibitory potency)
CO[C@]1(C(=O)[O-])C[C@H](O)[C@@H](NC(C)=O)[C@H]([C@H](O)[C@H](O)CNC(=O)c2ccc(-c3ccccc3)cc2)O1.[Na+] [BPC Neu5 Ac, reference compound]	1
CC(=O)N[C@H]1[C@H]([C@H](O)[C@H](O)CNC(=O)c2ccc(-c3ccccc3)cc2)O[C@@](OCCCCCC(=O)[O-])(C(=O)[O-])C[C@@H]1NS(=O)(=O)[O-].[Na+].[Na+].[Na+] [Compound 15]	1920
CCC(=O)N[C@H]1C[C@](OCCCCCC(=O)[O-])(C(=O)[O-])O[C@@H]([C@H](O)[C@H](O)CNC(=O)c2ccc(-c3ccccc3)cc2)[C@@H]1NC(C)=O.[Na+].[Na+] [Compound 17]	502
CC(=O)N[C@H]1[C@H]([C@H](O)[C@H](O)CNC(=O)c2ccc(-c3ccccc3)cc2)O[C@@](OCCCSCCC(=O)[O-])(C(=O)[O-])C[C@@H]1OS(=O)(=O)[O-].[Na+].[Na+].[Na+] [Compound 20]	3130
CC(=O)N[C@H]1[C@H]([C@H](O)[C@H](O)CNC(=O)c2ccc(-c3ccc(F)cc3)cc2)O[C@@](OCCCCCC(=O)[O-])(C(=O)[O-])C[C@@H]1NS(=O)(=O)[O-].[Na+].[Na+].[Na+] [Compound 37]	405

same assay, conditions: Table I; soluble CD22 binding to immobilized IgM

Structure (SMILES)	IC50
CO[C@]1(C(=O)[O-])C[C@H](O)[C@@H](NC(C)=O)[C@H]([C@H](O)[C@H](O)CNC(=O)c2ccc(-c3ccccc3)cc2)O1.[Na+] [BPC Neu5 Ac, reference compound]	6100 nM
CCC(=O)N[C@@H]1[C@@H](NC(C)=O)[C@H]([C@H](O)[C@H](O)CNC(=O)c2ccc(-c3ccccc3)cc2)O[C@@](OCCCCCC(=O)O)(C(=O)O)[C@H]1O [Compound 10]	6 nM
CC(=O)N[C@@H]1[C@@H](NS(C)(=O)=O)[C@H](O)[C@](OCCCCCC(=O)O)(C(=O)O)O[C@H]1[C@H](O)[C@H](O)CNC(=O)c1ccc(-c2ccccc2)cc1 [Compound 11]	7.7 nM
CC(=O)N[C@H]1[C@H]([C@H](O)[C@H](O)CNC(=O)c2ccc(-c3ccccc3)cc2)O[C@@](OCCCCCC(=O)[O-])(C(=O)[O-])C[C@@H]1NS(=O)(=O)[O-].[Na+].[Na+].[Na+] [Compound 15]	3.2 nM
CCC(=O)N[C@H]1C[C@](OCCCCCC(=O)[O-])(C(=O)[O-])O[C@@H]([C@H](O)[C@H](O)CNC(=O)c2ccc(-c3ccccc3)cc2)[C@@H]1NC(C)=O.[Na+].[Na+] [Compound 17]	12 nM
CC(=O)N[C@H]1[C@H]([C@H](O)[C@H](O)CNC(=O)c2ccc(-c3ccccc3)cc2)O[C@@](OCCCSCCC(=O)[O-])(C(=O)[O-])C[C@@H]1OS(=O)(=O)[O-].[Na+].[Na+].[Na+] [Compound 20]	2 nM
CC(=O)N[C@H]1[C@H]([C@H](O)[C@H](O)CNC(=O)c2ccc(-c3ccccc3)cc2)O[C@@](OCCCSCCC(=O)O)(C(=O)O)C[C@@H]1NC(=O)OC(C)(C)C [Compound 29]	85 nM
CC(=O)N[C@H]1[C@H]([C@H](O)[C@H](O)CNC(=O)c2ccc(-c3ccc(F)cc3)cc2)O[C@@](OCCCCCC(=O)[O-])(C(=O)[O-])C[C@@H]1NS(=O)(=O)[O-].[Na+].[Na+].[Na+] [Compound 37]	15 nM

same assay, conditions: Table II; relative to reference compound 10 co-tested in the same assay (rIP = 1)

Structure (SMILES)	rIP
CC(=O)N[C@@H]1[C@@H](NC(C)=O)[C@H](O)[C@](OCCCCCC(=O)[O-])(C(=O)[O-])O[C@H]1[C@H](O)[C@H](O)CNC(=O)c1ccc(-c2ccccc2)cc1.[Na+].[Na+] [Compound 38]	0.45
CC(=O)N[C@@H]1[C@@H](NC(=O)C(C)C)[C@H](O)[C@](OCCCCCC(=O)[O-])(C(=O)[O-])O[C@H]1[C@H](O)[C@H](O)CNC(=O)c1ccc(-c2ccccc2)cc1.[Na+].[Na+] [Compound 39]	0.70
CC(=O)N[C@@H]1[C@@H](NC(=O)C(C)(C)C)[C@H](O)[C@](OCCCCCC(=O)[O-])(C(=O)[O-])O[C@H]1[C@H](O)[C@H](O)CNC(=O)c1ccc(-c2ccccc2)cc1.[Na+].[Na+] [Compound 40]	0.38
CC(=O)N[C@@H]1[C@@H](NC(=O)CCl)[C@H](O)[C@](OCCCCCC(=O)[O-])(C(=O)[O-])O[C@H]1[C@H](O)[C@H](O)CNC(=O)c1ccc(-c2ccccc2)cc1.[Na+].[Na+] [Compound 41]	0.37
CCCCC(=O)N[C@@H]1[C@@H](NC(C)=O)[C@H]([C@H](O)[C@H](O)CNC(=O)c2ccc(-c3ccccc3)cc2)O[C@@](OCCCCCC(=O)[O-])(C(=O)[O-])[C@H]1O.[Na+].[Na+] [Compound 42]	1.22
CC(=O)N[C@@H]1[C@@H](NC(=O)CF)[C@H](O)[C@](OCCCCCC(=O)[O-])(C(=O)[O-])O[C@H]1[C@H](O)[C@H](O)CNC(=O)c1ccc(-c2ccccc2)cc1.[Na+].[Na+] [Compound 43]	0.25
CC(=O)N[C@@H]1[C@@H](NC(=O)CO)[C@H](O)[C@](OCCCCCC(=O)[O-])(C(=O)[O-])O[C@H]1[C@H](O)[C@H](O)CNC(=O)c1ccc(-c2ccccc2)cc1.[Na+].[Na+] [Compound 44]	0.24
CC(=O)N[C@@H]1[C@@H](NC(=O)C2CC2)[C@H](O)[C@](OCCCCCC(=O)[O-])(C(=O)[O-])O[C@H]1[C@H](O)[C@H](O)CNC(=O)c1ccc(-c2ccccc2)cc1.[Na+].[Na+] [Compound 45]	0.81
CC(=O)N[C@@H]1[C@@H](NC(=O)CCCl)[C@H](O)[C@](OCCCCCC(=O)[O-])(C(=O)[O-])O[C@H]1[C@H](O)[C@H](O)CNC(=O)c1ccc(-c2ccccc2)cc1.[Na+].[Na+] [Compound 46]	0.84
CC(=O)N[C@@H]1[C@@H](NC(=O)CN(C)C)[C@H](O)[C@](OCCCCCC(=O)[O-])(C(=O)[O-])O[C@H]1[C@H](O)[C@H](O)CNC(=O)c1ccc(-c2ccccc2)cc1.[Na+].[Na+] [Compound 47]	0.18
CC(=O)N[C@@H]1[C@@H](NC(=O)c2ccccc2)[C@H](O)[C@](OCCCCCC(=O)[O-])(C(=O)[O-])O[C@H]1[C@H](O)[C@H](O)CNC(=O)c1ccc(-c2ccccc2)cc1.[Na+].[Na+] [Compound 48]	0.93
COc1cccc(C(=O)N[C@@H]2[C@@H](NC(C)=O)[C@H]([C@H](O)[C@H](O)CNC(=O)c3ccc(-c4ccccc4)cc3)O[C@@](OCCCCCC(=O)[O-])(C(=O)[O-])[C@H]2O)c1.[Na+].[Na+] [Compound 49]	0.34
CC(=O)N[C@@H]1[C@@H](NC(=O)c2cccc(C)c2)[C@H](O)[C@](OCCCCCC(=O)[O-])(C(=O)[O-])O[C@H]1[C@H](O)[C@H](O)CNC(=O)c1ccc(-c2ccccc2)cc1.[Na+].[Na+] [Compound 50]	0.51
CC(=O)N[C@@H]1[C@@H](NC(=O)c2ccccc2C)[C@H](O)[C@](OCCCCCC(=O)[O-])(C(=O)[O-])O[C@H]1[C@H](O)[C@H](O)CNC(=O)c1ccc(-c2ccccc2)cc1.[Na+].[Na+] [Compound 51]	0.13
CC(=O)N[C@@H]1[C@@H](NC(=O)c2ccccc2Cl)[C@H](O)[C@](OCCCCCC(=O)[O-])(C(=O)[O-])O[C@H]1[C@H](O)[C@H](O)CNC(=O)c1ccc(-c2ccccc2)cc1.[Na+].[Na+] [Compound 52]	0.12

same assay, conditions: Table III; relative to reference compound 17 co-tested in the same assay (rIP = 1)

Structure (SMILES)	rIP
CCC(=O)N[C@H]1C[C@](OCCCCCC(=O)[O-])(C(=O)[O-])O[C@@H]([C@H](O)[C@H](O)CNC(=O)c2ccc(-c3ccccc3)cc2)[C@@H]1NC(C)=O.[Na+].[Na+] [Compound 17]	1
CC(=O)N[C@H]1[C@H]([C@H](O)[C@H](O)CNC(=O)c2ccc(-c3ccccc3)cc2)O[C@@](OCCCCCC(=O)[O-])(C(=O)[O-])C[C@@H]1NC(=O)c1ccccc1.[Na+].[Na+] [Compound 53]	1.1
CC(=O)N[C@H]1[C@H]([C@H](O)[C@H](O)CNC(=O)c2ccc(-c3ccccc3)cc2)O[C@@](OCCCCCC(=O)[O-])(C(=O)[O-])C[C@@H]1NC(=O)c1c(F)cccc1F.[Na+].[Na+] [Compound 54]	0.75
CC(=O)N[C@H]1[C@H]([C@H](O)[C@H](O)CNC(=O)c2ccc(-c3ccccc3)cc2)O[C@@](OCCCCCC(=O)[O-])(C(=O)[O-])C[C@@H]1NC(=O)c1cnccn1.[Na+].[Na+] [Compound 55]	2.7
CC(=O)N[C@H]1[C@H]([C@H](O)[C@H](O)CNC(=O)c2ccc(-c3ccccc3)cc2)O[C@@](OCCCCCC(=O)[O-])(C(=O)[O-])C[C@@H]1NC(=O)c1cccs1.[Na+].[Na+] [Compound 56]	3.6
CC(=O)N[C@H]1[C@H]([C@H](O)[C@H](O)CNC(=O)c2ccc(-c3ccccc3)cc2)O[C@@](OCCCCCC(=O)[O-])(C(=O)[O-])C[C@@H]1NC(=O)c1ccco1.[Na+].[Na+] [Compound 57]	6.1
CC(=O)N[C@H]1[C@H]([C@H](O)[C@H](O)CNC(=O)c2ccc(-c3ccccc3)cc2)O[C@@](OCCCCCC(=O)[O-])(C(=O)[O-])C[C@@H]1NC(=O)CC1NC(=O)NC1=O.[Na+].[Na+] (stereo partly shown) [Compound 58]	3.4
CC(=O)N[C@H]1[C@H]([C@H](O)[C@H](O)CNC(=O)c2ccc(-c3ccccc3)cc2)O[C@@](OCCCCCC(=O)[O-])(C(=O)[O-])C[C@@H]1NC(=O)c1ccc(C)cc1.[Na+].[Na+] [Compound 59]	0.24
CC(=O)N[C@H]1[C@H]([C@H](O)[C@H](O)CNC(=O)c2ccc(-c3ccccc3)cc2)O[C@@](OCCCCCC(=O)[O-])(C(=O)[O-])C[C@@H]1NC(=O)c1ccc(F)cc1.[Na+].[Na+] [Compound 60]	2.1
CC(=O)N[C@H]1[C@H]([C@H](O)[C@H](O)CNC(=O)c2ccc(-c3ccccc3)cc2)O[C@@](OCCCCCC(=O)[O-])(C(=O)[O-])C[C@@H]1NC(=O)c1ccc(Cl)cc1.[Na+].[Na+] [Compound 61]	3.4
CC(=O)N[C@H]1[C@H]([C@H](O)[C@H](O)CNC(=O)c2ccc(-c3ccccc3)cc2)O[C@@](OCCCCCC(=O)[O-])(C(=O)[O-])C[C@@H]1NC(=O)c1ccc(O)cc1.[Na+].[Na+] [Compound 62]	1.7
COc1ccc(C(=O)N[C@H]2C[C@](OCCCCCC(=O)[O-])(C(=O)[O-])O[C@@H]([C@H](O)[C@H](O)CNC(=O)c3ccc(-c4ccccc4)cc3)[C@@H]2NC(C)=O)cc1.[Na+].[Na+] [Compound 63]	0.27
